Reference: patent US20220073981A1 (KOREA INSTITUTE OF SCIENCE AND TECHNOLOGY, priority 2020, published 2022)

Test system: BEAS-2B cell line
Test: Cytotoxicity test (MTT assay)
Assay type: cell-based, human
Conditions: 48 hours exposure
Protocol: An MTT assay was performed using the BEAS-2B cell line according to the method of Mossman et al. (J. Immunol. Methods, 65, 55-63, 1983).

Question: How did the “concentration (IC5) showing the 95% survival rate” value turn out when CCC(C)=O [2-butanone] was run?
Answer: 22.27 mM

Question: What about the “concentration showing the 80% survival rate” value of the same compound?
Answer: 106.21 mM
